According to PMC3969223, “Characterization of WZ4003 and HTH-01-015 as selective inhibitors of the LKB1-tumour-suppressor-activated NUAK kinases” (Biochemical Journal, 2013):

Experiments:
Assay type in all cases: biochemical
BRSK1 = biological target: T1, BRSK1 (Homo sapiens, UniProt Q8TDC3); experiment: Kinase profiling; conditions: for BRSK1 activity, percentage of DMSO control: 0.1 or 1 μM inhibitor, mean of triplicate
T1 sequence (Q8TDC3 1-778): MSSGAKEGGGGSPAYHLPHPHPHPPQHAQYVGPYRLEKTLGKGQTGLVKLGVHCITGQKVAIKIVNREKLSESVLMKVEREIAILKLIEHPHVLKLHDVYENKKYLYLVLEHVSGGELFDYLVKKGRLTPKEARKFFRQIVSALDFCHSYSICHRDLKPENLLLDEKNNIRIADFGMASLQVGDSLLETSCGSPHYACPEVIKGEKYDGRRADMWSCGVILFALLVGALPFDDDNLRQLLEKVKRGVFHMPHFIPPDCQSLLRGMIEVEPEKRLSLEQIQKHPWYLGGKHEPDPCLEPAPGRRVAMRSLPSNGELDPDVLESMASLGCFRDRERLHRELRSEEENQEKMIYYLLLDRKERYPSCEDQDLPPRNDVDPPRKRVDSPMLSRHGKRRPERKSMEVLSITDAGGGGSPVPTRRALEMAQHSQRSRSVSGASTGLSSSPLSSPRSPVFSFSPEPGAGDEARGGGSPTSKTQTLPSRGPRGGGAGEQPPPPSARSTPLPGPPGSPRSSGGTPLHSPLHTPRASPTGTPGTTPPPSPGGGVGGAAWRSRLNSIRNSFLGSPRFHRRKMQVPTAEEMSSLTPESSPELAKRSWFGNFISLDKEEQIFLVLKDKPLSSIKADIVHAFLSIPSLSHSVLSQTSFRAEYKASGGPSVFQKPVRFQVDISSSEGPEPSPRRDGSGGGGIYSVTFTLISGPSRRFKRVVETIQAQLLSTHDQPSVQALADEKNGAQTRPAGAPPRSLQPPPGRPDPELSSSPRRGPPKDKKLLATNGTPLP
Description: (§1) Kinase inhibitor specificity profiling assays were carried out at The International Centre for Protein Kinase Profiling (http://www.kinase-screen.mrc.ac.uk/) against a panel of 140 protein kinases as described previously. Results are presented as a percentage of kinase activity in DMSO control reactions. Protein kinases were assayed in vitro with 0.1 or 1 μM of the inhibitors and the results are presented as an average of triplicate reactions±S.D. or in the form of comparative histograms.

Aurora B = Aurora B (Homo sapiens, UniProt Q96GD4); experiment: Kinase profiling; conditions: for Aurora B activity, percentage of DMSO control: 0.1 or 1 μM inhibitor, mean of triplicate; for Inhibition of Aurora B in profiling (in words; Aurora isoforms): 1 μM
Description: as §1

JAK2 = JAK2 (Homo sapiens, UniProt O60674); experiment: Kinase profiling; conditions: for JAK2 activity, percentage of DMSO control: 0.1 or 1 μM inhibitor, mean of triplicate; for Inhibition of JAK2 in profiling (in words): 1 μM
Description: as §1

Aurora A = biological target: T2, Aurora A (Homo sapiens, UniProt O14965); experiment: Kinase profiling; conditions: for Inhibition of Aurora A in profiling (in words; Aurora isoforms): 1 μM
T2 sequence (O14965 1-403): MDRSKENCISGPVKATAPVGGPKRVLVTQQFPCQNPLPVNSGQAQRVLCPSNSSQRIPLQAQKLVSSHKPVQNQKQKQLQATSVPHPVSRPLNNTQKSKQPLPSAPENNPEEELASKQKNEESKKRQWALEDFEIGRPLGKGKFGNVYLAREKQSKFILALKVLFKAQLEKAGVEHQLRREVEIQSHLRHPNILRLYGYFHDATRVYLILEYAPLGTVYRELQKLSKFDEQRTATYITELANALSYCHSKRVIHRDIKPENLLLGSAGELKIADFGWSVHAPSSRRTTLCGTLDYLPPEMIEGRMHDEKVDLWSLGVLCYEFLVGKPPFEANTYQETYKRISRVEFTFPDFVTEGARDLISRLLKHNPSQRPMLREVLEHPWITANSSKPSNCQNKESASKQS
Description: as §1

[1] = test system: panel of 140 protein kinases; experiment: Protein kinase profiling, whole panel; conditions: 1 μM, panel of 140 kinases
Description: as §1

Sequence of JAK2 (O60674 whole entry): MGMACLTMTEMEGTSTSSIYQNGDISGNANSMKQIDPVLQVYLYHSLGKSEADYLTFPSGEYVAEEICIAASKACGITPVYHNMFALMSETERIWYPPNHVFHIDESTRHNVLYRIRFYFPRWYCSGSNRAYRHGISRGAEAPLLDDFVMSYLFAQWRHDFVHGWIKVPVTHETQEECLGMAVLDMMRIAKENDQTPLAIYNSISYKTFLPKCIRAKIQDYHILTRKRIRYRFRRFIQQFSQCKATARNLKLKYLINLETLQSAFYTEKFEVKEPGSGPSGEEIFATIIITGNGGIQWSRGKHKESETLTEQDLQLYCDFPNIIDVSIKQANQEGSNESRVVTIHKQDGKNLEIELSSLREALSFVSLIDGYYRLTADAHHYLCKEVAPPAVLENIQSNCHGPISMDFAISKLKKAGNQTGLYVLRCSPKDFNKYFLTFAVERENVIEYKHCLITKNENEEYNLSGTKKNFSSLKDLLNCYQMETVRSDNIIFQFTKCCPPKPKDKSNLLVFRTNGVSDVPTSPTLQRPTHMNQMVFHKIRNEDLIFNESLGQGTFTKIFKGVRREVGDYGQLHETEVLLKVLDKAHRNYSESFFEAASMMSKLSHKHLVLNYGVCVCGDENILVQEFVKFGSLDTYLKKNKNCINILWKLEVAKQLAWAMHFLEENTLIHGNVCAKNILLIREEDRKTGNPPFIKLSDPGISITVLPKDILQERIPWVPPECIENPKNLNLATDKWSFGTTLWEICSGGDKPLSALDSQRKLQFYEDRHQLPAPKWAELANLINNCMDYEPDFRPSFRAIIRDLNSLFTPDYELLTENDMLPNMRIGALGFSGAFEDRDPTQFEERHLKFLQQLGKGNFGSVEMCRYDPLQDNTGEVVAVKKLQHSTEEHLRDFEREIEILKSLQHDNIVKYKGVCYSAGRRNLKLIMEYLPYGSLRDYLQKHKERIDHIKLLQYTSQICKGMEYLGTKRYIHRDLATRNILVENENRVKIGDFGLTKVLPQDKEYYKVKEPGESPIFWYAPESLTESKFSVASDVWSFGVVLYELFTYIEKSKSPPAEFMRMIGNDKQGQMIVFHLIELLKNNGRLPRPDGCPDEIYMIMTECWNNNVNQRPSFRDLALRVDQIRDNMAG
Sequence of Aurora B (Q96GD4 whole entry, canonical isoform): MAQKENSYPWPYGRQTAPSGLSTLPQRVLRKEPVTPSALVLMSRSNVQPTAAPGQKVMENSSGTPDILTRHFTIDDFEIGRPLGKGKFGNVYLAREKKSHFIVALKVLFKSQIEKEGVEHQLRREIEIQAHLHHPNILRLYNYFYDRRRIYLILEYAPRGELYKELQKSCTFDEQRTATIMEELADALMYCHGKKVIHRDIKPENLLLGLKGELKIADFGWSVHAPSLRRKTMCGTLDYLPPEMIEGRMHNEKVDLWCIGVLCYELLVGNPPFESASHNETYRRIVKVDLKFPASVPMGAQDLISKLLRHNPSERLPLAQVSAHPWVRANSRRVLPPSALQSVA

SMILES | BRSK1 activity, percentage of DMSO control (BRSK1) [percentage] | Aurora B activity, percentage of DMSO control (Aurora B) [percentage] | JAK2 activity, percentage of DMSO control (JAK2) [percentage] | Aurora A activity, percentage of DMSO control (Aurora A; 0.1 or 1 μM inhibitor, mean of triplicate) [percentage] | Selectivity over the other kinases of the panel (in words) [1] | Inhibition of BRSK1 in profiling (in words) (BRSK1; 1 μM) | Inhibition of Aurora B in profiling (in words; Aurora isoforms) (Aurora B) | Inhibition of JAK2 in profiling (in words) (JAK2) | Inhibition of Aurora A in profiling (in words; Aurora isoforms) (Aurora A)
Cc1nc(Nc2cnn(C3CCNCC3)c2)nc2c1N(C)C(=O)c1cc3ccccc3cc1N2C [HTH-01-015] | 130 | 97 | 101 | 117 | did not markedly suppress |  |  |  | 
CCC(=O)Nc1cccc(Oc2nc(Nc3ccc(N4CCN(C)CC4)cc3OC)ncc2Cl)c1 [WZ4003] | 91 | 72 | 65 |  | did not significantly inhibit |  |  |  | 
CN1C(=O)c2ccccc2N(C)c2nc(Nc3cnn(C4CCNCC4)c3)ncc21 [XMD-17-51] |  |  |  |  | less selective | inhibited | inhibited | inhibited | inhibited
CN1C(=O)c2cc3ccccc3cc2N(C)c2nc(Nc3cnn(C4CCNCC4)c3)ncc21 [XMD-18-42] |  |  |  |  | less selective |  | inhibited | inhibited | inhibited
